Columns and labels:
Assay type in all cases: functional
[1] = system: Mycolicibacterium smegmatis; test: Tested for recognition of mycobacterial arabinosyl transferase incubated with 14C1 labeled decaprenol arabinofuranosyl phosphate in the presence of membrane extracts from Mycobacterium smegmatis in experiment 1 (%incorporation = 16.4)
[2] = system: Mycolicibacterium smegmatis; test: Tested for recognition of mycobacterial arabinosyl transferase incubated with 14C1 labeled decaprenol arabinofuranosyl phosphate in the presence of membrane extracts from Mycobacterium smegmatis in experiment 2 (%incorporation = 15.2)
[3] = system: Mycolicibacterium smegmatis; test: Average value of incorporation for recognition of mycobacterial arabinosyl transferase in experiments 1 and 2 (%incorporation = 16.1)
[4] = system: Mycolicibacterium smegmatis; test: Tested for recognition of mycobacterial arabinosyl transferase incubated with 14C1 labeled decaprenol arabinofuranosyl phosphate in the presence of membrane extracts from Mycobacterium smegmatis in experiment 3 (%incorporation = 12.4)
[5] = system: Mycolicibacterium smegmatis; test: Tested for recognition of mycobacterial arabinosyl transferase incubated with 14C1 labeled decaprenol arabinofuranosyl phosphate in the presence of membrane extracts from Mycobacterium smegmatis in experiment 1 (%incorporation = 12.9)
[6] = system: Mycolicibacterium smegmatis; test: Average value of incorporation for recognition of mycobacterial arabinosyl transferase in experiments 1, 2 and 3 (%incorporation = 12.7)
[7] = system: Mycolicibacterium smegmatis; test: Tested for recognition of mycobacterial arabinosyl transferase incubated with 14C1 labeled decaprenol arabinofuranosyl phosphate in the presence of membrane extracts from Mycobacterium smegmatis in experiment 2 (%incorporation = 12.9)
[8] = system: Mycolicibacterium smegmatis; test: Tested for recognition of mycobacterial arabinosyl transferase incubated with 14C1 labeled decaprenol arabinofuranosyl phosphate in the presence of membrane extracts from Mycobacterium smegmatis in experiment 1 (%incorporation = 19.1)
[9] = system: Mycolicibacterium smegmatis; test: Tested for recognition of mycobacterial arabinosyl transferase incubated with 14C1 labeled decaprenol arabinofuranosyl phosphate in the presence of membrane extracts from Mycobacterium smegmatis in experiment 3 (%incorporation = 16.4)
[10] = system: Mycolicibacterium smegmatis; test: Average value of incorporation for recognition of mycobacterial arabinosyl transferase in experiments 1, 2 and 3 (%incorporation = 17.2)
[11] = system: Mycolicibacterium smegmatis; test: Tested for recognition of mycobacterial arabinosyl transferase incubated with 14C1 labeled decaprenol arabinofuranosyl phosphate in the presence of membrane extracts from Mycobacterium smegmatis in experiment 2 (%incorporation = 16.1)
[12] = system: Mycolicibacterium smegmatis; test: Tested for recognition of mycobacterial arabinosyl transferase incubated with 14C1 labeled decaprenol arabinofuranosyl phosphate in the presence of membrane extracts from Mycobacterium smegmatis in experiment 3 (%incorporation = 18.2)
[13] = system: Mycolicibacterium smegmatis; test: Tested for recognition of mycobacterial arabinosyl transferase incubated with 14C1 labeled decaprenol arabinofuranosyl phosphate in the presence of membrane extracts from Mycobacterium smegmatis in experiment 1 (%incorporation = 21.9)
[14] = system: Mycolicibacterium smegmatis; test: Average value of incorporation for recognition of mycobacterial arabinosyl transferase in experiments 1, 2 and 3 (%incorporation = 20.8)
[15] = system: Mycolicibacterium smegmatis; test: Tested for recognition of mycobacterial arabinosyl transferase incubated with 14C1 labeled decaprenol arabinofuranosyl phosphate in the presence of membrane extracts from Mycobacterium smegmatis in experiment 2 (%incorporation = 22.5)
[16] = system: Mycolicibacterium smegmatis; test: Tested for recognition of mycobacterial arabinosyl transferase incubated with 14C1 labeled decaprenol arabinofuranosyl phosphate in the presence of membrane extracts from Mycobacterium smegmatis in experiment 2 (%incorporation = 15.8)
[17] = system: Mycolicibacterium smegmatis; test: Tested for recognition of mycobacterial arabinosyl transferase incubated with 14C1 labeled decaprenol arabinofuranosyl phosphate in the presence of membrane extracts from Mycobacterium smegmatis in experiment 1 (%incorporation = 13.8)
[18] = system: Mycolicibacterium smegmatis; test: Average value of incorporation for recognition of mycobacterial arabinosyl transferase in experiments 1, 2 and 3 (%incorporation = 14)

SMILES: CO[C@H]1O[C@H](CO[C@H]2O[C@H](CO[C@H]3O[C@H](CO)[C@@H](O)[C@@H]3O)[C@@H](O[C@H]3O[C@H](CO)[C@@H](O)[C@@H]3O)[C@@H]2O)[C@@H](O)[C@@H]1O
- Incorporation [1]: 6540 c.p.m.
- Incorporation [2]: 6092 c.p.m.
- Average [3]: 6433 c.p.m.

SMILES: CO[C@H]1O[C@H](CO[C@H]2O[C@H](CO)[C@@H](O)[C@@H]2O)[C@@H](O)[C@@H]1O
- Incorporation [4]: 4990 c.p.m.
- Incorporation [5]: 5148 c.p.m.
- Average [6]: 5095 c.p.m.
- Incorporation [7]: 5148 c.p.m.

SMILES: CO[C@H]1O[C@H](CO)[C@@H](O[C@H]2O[C@H](CO)[C@@H](O)[C@@H]2O)[C@@H]1O
- Incorporation [8]: 7632 c.p.m.
- Incorporation [9]: 6563 c.p.m.
- Average [10]: 6876 c.p.m.
- Incorporation [11]: 6432 c.p.m.

SMILES: CO[C@H]1O[C@H](CO[C@H]2O[C@H](CO[C@H]3O[C@H](CO)[C@@H](O)[C@@H]3O)[C@@H](O)[C@@H]2O)[C@@H](O)[C@@H]1O
- Incorporation [12]: 7271 c.p.m.
- Incorporation [13]: 8732 c.p.m.
- Average [14]: 8338 c.p.m.
- Incorporation [15]: 9011 c.p.m.

SMILES: CO[C@H]1O[C@H](CO[C@H]2O[C@H](CO)[C@@H](O[C@H]3O[C@H](CO)[C@@H](O)[C@@H]3O)[C@@H]2O)[C@@H](O)[C@@H]1O
- Incorporation [4]: 4960 c.p.m.
- Incorporation [16]: 6326 c.p.m.
- Incorporation [17]: 5513 c.p.m.
- Average [18]: 5600 c.p.m.
